One compound from patent publication US8871735B2, “Methods and compositions for providing cardiac protection” (University of Medicine and Dentistry of New Jersey, priority 2008, dated 2014) can be followed below.

“Also recorded” adds a separate entry of the source.

The test system of data set [1] is cardiac myocytes. In words: ISO-stimulated cAMP accumulation in cultured cardiac myocytes. The class given is cell-based, mouse. Particulars: 10 μM compound. For orientation: cAMP levels reflect the balance of adenylyl cyclase and phosphodiesterase activity.
For data set [2], the system named is mice. The experiment in a line: Basal cardiac function (echocardiography) under chronic drug infusion alone. As to conditions: chronic infusion of drug alone (3 days to 1 week). The class given is in vivo, mouse. From the text:
ISO with or without AC5 inhibitors were chronically infused with osmotic mini-pump implanted subcutaneously at indicated doses for 1 week in c57Bl/6 mice. Mice were then subjected to echocardiography (a) and the hearts were removed and subjected to pathological examinations such as myocardial apoptosis (b) and fibrosis (c). n=4-8.
In C57Bl/6 mice, ISO with or without AC5 inhibitors or metoprolol were chronically infused with an osmotic mini-pump at the indicated doses for 1 week. Mice were then subjected to echocardiography (a) and heart tissue were subjected to a myocardial apoptosis assay (b). *, p<0.01 vs vehicle. #, p<0.05 vs vehicle. .dagger., p<0.01 vs ISO. .dagger-dbl., p<0.05 vs ISO. n=4-15. […] Comparisons between multiple groups were made using ANOVA with post-hoc tests.
Mice were anesthetized with 2.5% tribromoethanol (0.010 to 0.015 mL per gram of body weight) injected intraperitoneally, and echocardiography was performed with ultrasonography (ACUSON Sequoia C256, Siemens Medical Solutions, Malvern, Pa.). For acute injection of isoproterenol, forskolin and milrinon, a PE-10 catheter was inserted into the right jugular vein, and drugs were injected at the rate of 1 μl/s. cAMP accumulation assay in H9C2 cells, a cardiac myoblast cell line, was examined as previously described. […]

Data set [3] deals with AC5 (Mus musculus, UniProt P84309). In words: Acute ISO, milrinone or carbachol challenge in mice chronically infused with Ara-Ade. The class given is in vivo.
Data set [4] relates to AC5. The data set is described as above. The format is in vivo, mouse. Particulars: 0.05 μg/kg IV ISO, AC5Tg.
The subject of data set [5] is mice after coronary occlusion. The experiment in a line: Coronary occlusion (post-MI) survival and echocardiography. The class given is in vivo, mouse. The protocol:
Ara-Ade (50 mg/kg/day) was chronically infused with mini-osmotic pumps implanted subcutaneously 2-3 days before the coronary occlusion. […] (b) Echocardiography was performed at 16 days after coronary occlusion.

The subject of data set [6] is C57BL/6 mice, CAO 30 min / CAR. The experiment in a line: Mouse ischemia and reperfusion model. The format is in vivo.
Protocol: Mice were divided into three different groups. Group I was administered AC5 inhibitor chronically for three weeks prior to CAO for 30 minutes followed by CAR for 24 hours. Group II was administered the AC5 inhibitor by i.v. infusion for 5 minutes immediately prior to CAO for 30 minutes followed by CAR for 24 hours. Group III was administered the AC5 inhibitor by i.v. infusion for 5 minutes immediately following CAO for 30 minutes and during CAR for 24 hours. Vehicle controls were included for all three treatment groups.
3-4 month old male C57BL/6 mice purchased from Jackson Laboratory were anesthetized by an injection of 2% 2,2,2-tribromomethanol (0.66 mg/g i.p.; Aldrich Chemical, St. Louis, Mo.). The mice were then orally intubated and mechanically ventilated. The heart was accessed via a thoracotomy at the fourth intercostals space and 7-0 silk suture passed under the left anterior descending coronary artery (LAD) at the point where it emerged from under the left atrial flap. Myocardial ischemia was achieved by occluding the LAD against a 22-gauge J-shaped stainless steel probe and verified by visually noting the regional akinesis and blanching of the left ventrical. The chest was closed in layers, with the long end of the probe remaining outside the chest wall, allowing the animal to be removed from the ventilator. After 30 min. of ischemia, reperfusion was initiated by carefully pulling the probe out form the ligature and then removing it from the chest cavity. Following the surgical procedure, the mouse was allowed to recover on a warmed surface, with supplemental oxygen delivered from a nose cone. I/R were verified by three lead electrocardiograms, which were obtained preoperatively, at the end of the ischemic interval and immediately after the initiation of reperfusion. Mice fully recovered from the surgical procedure were returned to standard animal housing conditions. The mice were under either 24 hrs of reperfusion followed by sacrifice and dual staining of the heart with TTC and Alcian Blue or kept for 4 weeks to study the heart failure progression. For the long term study post ischemia and reperfusion, the animals underwent echocardiography recording at 4 days, 2 weeks and 4 weeks after reperfusion.
Data set [7] deals with Yorkshire pigs, CAO / CAR. In words: Pig ischemia and reperfusion model. The format is in vivo.
Protocol: Yorkshire pigs were under anesthesia and instrumented in accordance with established procedures. After 4 days of recovery, the pigs were subjected to ischemia and reperfusion also in accordance with established procedures. At 3 hours of coronary artery reperfusion, the animals were sacrificed and the infarct size was measures with TTC staining.
Data set [8] in a line: Water solubility. The class given is physicochemical.
Setting [9] is: 30 min CAO, 24 hr CAR, vehicle 36%.

Sequence of AC5 (Mus musculus, UniProt P84309) (P84309 whole entry, the tested form may be a part): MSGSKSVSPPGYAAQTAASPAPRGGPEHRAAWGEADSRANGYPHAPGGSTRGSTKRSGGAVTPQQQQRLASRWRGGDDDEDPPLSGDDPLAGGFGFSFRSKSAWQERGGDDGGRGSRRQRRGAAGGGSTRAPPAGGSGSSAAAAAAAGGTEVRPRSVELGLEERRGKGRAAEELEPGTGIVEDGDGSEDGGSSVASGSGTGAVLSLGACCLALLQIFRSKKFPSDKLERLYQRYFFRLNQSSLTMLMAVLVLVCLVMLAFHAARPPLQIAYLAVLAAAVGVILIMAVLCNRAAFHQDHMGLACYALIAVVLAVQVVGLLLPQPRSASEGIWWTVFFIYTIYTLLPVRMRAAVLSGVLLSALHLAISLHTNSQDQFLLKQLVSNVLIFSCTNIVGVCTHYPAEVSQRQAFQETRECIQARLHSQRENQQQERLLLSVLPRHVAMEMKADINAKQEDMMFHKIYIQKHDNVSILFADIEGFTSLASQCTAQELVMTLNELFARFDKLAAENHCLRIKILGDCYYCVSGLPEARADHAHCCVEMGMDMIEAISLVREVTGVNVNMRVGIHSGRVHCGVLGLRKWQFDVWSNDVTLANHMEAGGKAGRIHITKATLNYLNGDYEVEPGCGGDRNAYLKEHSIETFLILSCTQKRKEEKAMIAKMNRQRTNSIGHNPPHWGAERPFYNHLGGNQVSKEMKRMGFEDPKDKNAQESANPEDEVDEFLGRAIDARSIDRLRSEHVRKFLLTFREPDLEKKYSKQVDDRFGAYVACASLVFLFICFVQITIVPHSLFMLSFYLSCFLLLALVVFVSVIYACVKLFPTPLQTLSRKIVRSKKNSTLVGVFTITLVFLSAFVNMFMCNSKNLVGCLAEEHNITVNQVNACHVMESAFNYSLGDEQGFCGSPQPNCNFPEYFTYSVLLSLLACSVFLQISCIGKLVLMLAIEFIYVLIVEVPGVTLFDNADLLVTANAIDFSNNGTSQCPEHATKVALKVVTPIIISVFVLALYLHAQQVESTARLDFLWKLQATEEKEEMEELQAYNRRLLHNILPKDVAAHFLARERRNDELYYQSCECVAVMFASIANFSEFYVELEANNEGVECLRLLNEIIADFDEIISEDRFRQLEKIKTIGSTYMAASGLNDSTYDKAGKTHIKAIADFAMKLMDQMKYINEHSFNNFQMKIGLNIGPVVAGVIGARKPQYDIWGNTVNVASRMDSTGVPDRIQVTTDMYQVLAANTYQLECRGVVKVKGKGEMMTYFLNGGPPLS

Consider `Nc1ncnc2c1ncn2[C@@H]1O[C@H](CO)[C@@H](O)[C@@H]1O` [Ara-Ade, 9-β-D-arabinofuranosyladenine], for which the “decrease in ISO-induced cAMP production / accumulation in cultured cardiac myocytes” value in data set [1] is listed as 20%. Further, the “basal LVEF” value in data set [2] is reported as “did not change LVEF; also recorded: did not affect basal LVEF”. For the same compound, in data set [3] (0.05 μg/kg IV ISO, WT), the “difference in LVEF between vehicle and Ara-Ade in WT” value is reported as “no significant difference”. Further, the “LVEF after ISO vs vehicle” value in data set [3] (Ara-Ade 20 mg/kg/day chronically infused, 0.25 μg/kg IV ISO) is given as “lower”. In addition, the “LVEF elevation by milrinone, vehicle vs Ara-Ade group” value in data set [3] (milrinone infusion) is given as “no significant difference”. Besides, the “decrease in HR by carbachol” value in data set [3] (vehicle vs Ara-Ade) is “greater in vehicle than Ara-Ade”. Further, in data set [4], the “difference in LVEF between vehicle and Ara-Ade in AC5Tg” value is given as “significant”. The “LVEF after MI” value in data set [5] (16 days after coronary occlusion) is on record as “prevented decrease in LVEF”. In data set [5] (Ara-Ade 50 mg/kg/day from 2-3 days before occlusion, chi-square at 16 days), the “survival rate after coronary occlusion” value is reported as “significant increase in survival rate”. In addition, the “arterial pressure and heart rate” value in data set [6] is “did not reduce arterial pressure and reflexly increase heart rate”. Also, in data set [6] (setting [9]), the “infarct size, drug administered before CAO or CAR” value came to 21% and the “infarct size, drug delivered at CAR” value turned out to be 16%. Also, the “development of heart failure after ischemia and reperfusion” value in data set [6] (i.v. infusion after CAO, during or after reperfusion) is given as “prevented development of heart failure”. Further, in data set [7] (delivered after CAR), the “infarct size in chronically instrumented conscious pigs” value is listed as “reduced infarct size”. The “reactive hyperemia in pigs” value in data set [7] (pig, in vivo) is reported as “inhibited reactive hyperemia”. Also, the water solubility entry in data set [8] is “poorly water-soluble”.
